In patent EP0406992A2, “New non-ionic carboxamide contrast agent” (SCHERING AKTIENGESELLSCHAFT, priority 1989, dated 1991):
Read-outs that look alike come from different tables or passages of the source. Marks after values point to notes of the source that are not given here.

Experiments:
[1] = tested on: männl. Maus 16-20 g; conditions: male mouse 16-20 g, approximate range
[2] = Osmolality of contrast agent solutions; assay type: physicochemical; conditions: for Osmolalität von 300 mg I/ml Lösungen wäßrige Lösung: aqueous solution; for Osmolalität von 300 mg I/ml Lösungen pharmazeutisch formul. Lösung: pharmaceutically formulated solution
[3] = Viscosity of contrast agent solutions at 37 °C; assay type: physicochemical; conditions: for Viskosität von 300 mg I/ml bei 37 °C: pharmaceutically formulated solution, determined in applicant's laboratory
[4] = tested on: männl. Ratte 80-100 g; conditions: male rat 80-100 g, approximate range
[5] = values marked * (Laut Literaturangabe); cited from earlier work

## CC(=O)N(CC(O)CO)c1c(I)c(C(N)=O)c(I)c(C(=O)NCC(O)CO)c1I (centres unmarked) [Verbindung 19, 5-{N-(2,3-Dihydroxypropyl)acetamido}-2,4,6-triiod-3-{N-(2,3-dihydroxypropyl)}carbamoyl-Benzamid]
[1]
  Näherungsbereich i.v. LD₅₀ männl. Maus 16-20 g: 14-16 g I/kg
[2]
  Osmolalität von 300 mg I/ml Lösungen wäßrige Lösung: 365 mOsm
  Osmolalität von 300 mg I/ml Lösungen pharmazeutisch formul. Lösung: 390 mOsm
[2]; injection solution 300 mg I/ml, CaNa2-EDTA 10 mg, Tris 121 mg per 100 ml, pH 7,0, autoclaved
  Osmolalität: 399 mOsm/kg
[2]; injection solution 350 mg I/ml, CaNa2-EDTA 10 mg, Tris 121 mg per 100 ml, pH 7,0, autoclaved
  Osmolalität: 473 mOsm/kg
[2]; injection solution 400 mg I/ml, CaNa2-EDTA 10 mg, Tris 121 mg per 100 ml, pH 7,0, autoclaved
  Osmolalität: 510 mOsm/kg
[3]
  Viskosität von 300 mg I/ml bei 37 °C: 4,1 cps
[3]; injection solution 300 mg I/ml, CaNa2-EDTA 10 mg, Tris 121 mg per 100 ml, pH 7,0, 37 °C
  Viskosität bei 37 °C: 4,1 Centipoise
[3]; injection solution 350 mg I/ml, CaNa2-EDTA 10 mg, Tris 121 mg per 100 ml, pH 7,0, 37 °C
  Viskosität bei 37 °C: 6,6 Centipoise
[3]; injection solution 400 mg I/ml, CaNa2-EDTA 10 mg, Tris 121 mg per 100 ml, pH 7,0, 37 °C
  Viskosität bei 37 °C: 10,6 Centipoise
[4]
  Näherungsbereich i.v. LD₅₀ männl. Ratte 80-100 g: 13-14 g I/kg

## CN(C(=O)CO)c1c(I)c(C(N)=O)c(I)c(C(=O)NC(CO)C(O)CO)c1I (stereo not drawn) [Verbindung 41, 5-{N-(Methyl)-2-hydroxyacetamido}-2,4,6-triiod-3-{N-(1,3,4-trihydroxy-threo-but-2-yl)}-carbamoyl-Benzamid]
[1]
  Näherungsbereich i.v. LD₅₀ männl. Maus 16-20 g: 16-17,5 g I/kg
[2]
  Osmolalität von 300 mg I/ml Lösungen wäßrige Lösung: 314 mOsm
  Osmolalität von 300 mg I/ml Lösungen pharmazeutisch formul. Lösung: 322 mOsm
[3]
  Viskosität von 300 mg I/ml bei 37 °C: 3,5 cps
[4]
  Näherungsbereich i.v. LD₅₀ männl. Ratte 80-100 g: 15-17 g I/kg

## CC(=O)N(CC(O)CO)c1c(I)c(C(=O)NCC(O)CO)c(I)c(C(=O)NCC(O)CO)c1I (centres unmarked) [Iohexol]
[1]
  Näherungsbereich i.v. LD₅₀ männl. Maus 16-20 g: 16-17 g I/kg
[4]
  Näherungsbereich i.v. LD₅₀ männl. Ratte 80-100 g: 11,5-12,5 g I/kg

## CC(=O)N(CC(O)CO)c1c(I)c(C(=O)NCCO)c(I)c(C(=O)NCC(O)CO)c1I (centres unmarked) [Ioxilan, reference compound]
[1]
  Näherungsbereich i.v. LD₅₀ männl. Maus 16-20 g: 16-18 g I/kg
[2]
  Osmolalität von 300 mg I/ml Lösungen wäßrige Lösung: 560 mOsm
  Osmolalität von 300 mg I/ml Lösungen pharmazeutisch formul. Lösung: 588 mOsm
[3]
  Viskosität von 300 mg I/ml bei 37 °C: 4,7 cps
[4]
  Näherungsbereich i.v. LD₅₀ männl. Ratte 80-100 g: 12-13 g I/kg

## COCC(=O)Nc1c(I)c(C(=O)NCC(O)CO)c(I)c(C(=O)N(C)CC(O)CO)c1I (centres unmarked) [Iopromid]
[1]
  Näherungsbereich i.v. LD₅₀ männl. Maus 16-20 g: 14-16 g I/kg
[5]
  Viskosität von 300 mg I/ml bei 37 °C: 4,6* cps
[2]
  Osmolalität von 300 mg I/ml Lösungen wäßrige Lösung: 607 mOsm
  Osmolalität von 300 mg I/ml Lösungen pharmazeutisch formul. Lösung: 630 mOsm
[4]
  Näherungsbereich i.v. LD₅₀ männl. Ratte 80-100 g: 11-12 g I/kg

## CC(=O)N(CCO)c1c(I)c(C(N)=O)c(I)c(C(=O)NC(CO)C(O)CO)c1I (stereo not drawn) [Verbindung 11, 5-{N-(2-Hydroxyethylacetamido)}-2,4,6-triiod-3-{N-(1,3,4-trihydroxy-threo-but-2-yl)}carbamoyl-Benzamid]
[1]
  Näherungsbereich i.v. LD₅₀ männl. Maus 16-20 g: 15,5-16,5 g I/kg
[2]
  Osmolalität von 300 mg I/ml Lösungen wäßrige Lösung: 300 mOsm
  Osmolalität von 300 mg I/ml Lösungen pharmazeutisch formul. Lösung: 326 mOsm
[2]; injection solution 300 mg I/ml, CaNa2-EDTA 56 mg, Trinatriumcitrat 77 mg per 100 ml, pH 5,0 bis 6,0, autoclaved
  Osmolalität: 301 mOsm/kg
[2]; injection solution 350 mg I/ml, CaNa2-EDTA 56 mg, Trinatriumcitrat 77 mg per 100 ml, pH 5,0 bis 6,0, autoclaved
  Osmolalität: 337 mOsm/kg
[2]; injection solution 400 mg I/ml, CaNa2-EDTA 56 mg, Trinatriumcitrat 77 mg per 100 ml, pH 5,0 bis 6,0, autoclaved
  Osmolalität: 370 mOsm/kg
[3]
  Viskosität von 300 mg I/ml bei 37 °C: 4,2 cps
[3]; injection solution 300 mg I/ml, CaNa2-EDTA 56 mg, Trinatriumcitrat 77 mg per 100 ml, pH 5,0 bis 6,0, 37 °C
  Viskosität bei 37 °C: 4,2 Centipoise
[3]; injection solution 350 mg I/ml, CaNa2-EDTA 56 mg, Trinatriumcitrat 77 mg per 100 ml, pH 5,0 bis 6,0, 37 °C
  Viskosität bei 37 °C: 6,6 Centipoise
[3]; injection solution 400 mg I/ml, CaNa2-EDTA 56 mg, Trinatriumcitrat 77 mg per 100 ml, pH 5,0 bis 6,0, 37 °C
  Viskosität bei 37 °C: 13,1 Centipoise
[4]
  Näherungsbereich i.v. LD₅₀ männl. Ratte 80-100 g: 15,5-17,5 g I/kg

## C[C@H](O)C(=O)Nc1c(I)c(C(=O)NC(CO)CO)c(I)c(C(=O)NC(CO)CO)c1I [Iopamidol]
[1]
  Näherungsbereich i.v. LD₅₀ männl. Maus 16-20 g: 16-18 g I/kg
[5]
  Viskosität von 300 mg I/ml bei 37 °C: 4,7* cps
[2]
  Osmolalität von 300 mg I/ml Lösungen wäßrige Lösung: 671 mOsm
  Osmolalität von 300 mg I/ml Lösungen pharmazeutisch formul. Lösung: 704 mOsm
[4]
  Näherungsbereich i.v. LD₅₀ männl. Ratte 80-100 g: 12-13 g I/kg
